Reference: patent publication US20240374572A1, “METHODS FOR EXTENDING THE LIFESPAN OF CELLS AND ORGANISMS” (priority 2021, published 2024)

What was measured:
N2 C. elegans = assay: Lifespan of N2 C. elegans under regular culture conditions; format: in vivo, Caenorhabditis elegans; conditions: FIG. 2A
From the text: In this example, the biological functions of ergothioneine were investigated using (C. elegans as the model system. Using (C. elegans as the model has several prominent advantages, including short life cycle, simple experimental manipulation, and rich collection of publicly available genetic mutants (e.g., Caenorhabditis Genetics Center). In addition, its genome comprises 2/3 of human disease-related genes.
To test the biological effect of ergothioneine, the first set of experiments was to test the toxicity level of ergothioneine on the worm model. In humans, ergothioneine is enriched up to 2 mM concentration in many parts of the body.
(§1) At 150 μM, the lifespan of the wild type worm can be extended by 30-40% (FIG. 2A). Over the last two decades, there is numerous evidence supporting the life-extension effect by caloric restriction from various model systems (yeast, worm, fly, and mouse). Thus, the effect of ergothioneine on worm Eat-2 mutant was also examined.

worm Eat-2 mutant = assay: Lifespan of worm Eat-2 mutant (caloric restriction model); format: in vivo, Caenorhabditis elegans; conditions: FIG. 2B
Description: as §1

N2 worms = assay: Paraquat-induced oxidative stress in N2 worms; format: in vivo, Caenorhabditis elegans; conditions: FIG. 2C
Description: Encouraged by the clear life-extension effect on worm model under regular culture conditions in the above example, the protective effect of ergothioneine under stresses was examined. In the first experiment, the worm was treated with paraquat to induce oxidative stress. Under the paraquat-induced oxidative stress conditions, N2 worms' life span was decreased by nearly 50% (FIG. 2C vs. FIG. 2A).

N2 worm = assay: Heat shock survival of N2 worms; format: in vivo, Caenorhabditis elegans; conditions: moved from 20° C. to 42° C.; a few hundred micromolar; without compound 3 hours; FIG. 2D
Description: Besides the oxidative stress, the protective effect of ergothioneine for the worm under heat shock conditions was also examined. After the worms were cultured multiple days, they were then moved from 20° C. to 42° C. Under such a heat-shock condition, 50% of the worm died within 3 hours. However, in the presence of a few hundred micromolar concentration of ergothioneine, it extends N2 worm's average survival time from 3 hours to nearly 8-9 hours (FIG. 2D). Therefore, besides its life-extension effects under regular culture conditions, ergothioneine clearly offers protective effects to worms under oxidative stress and heat shock conditions.

daf-16 mutant worm = assay: Lifespan of daf-16 mutant worm; format: in vivo, Caenorhabditis elegans; conditions: FIG. 3A
From the text: To address this issue, the large collection of C. elegans mutants in Caenorhabditis Genetics Center was again utilized in this example. Among the mutants examined, the daf-16 mutant results stood out (FIGS. 3A, 3B, and 3C). […] Among genes of the IIS pathway, daf-2 encodes an insulin-like receptor, and it is the starting point of the pathway that eventually leads to daf-16. Daf-16 is the hub, where information from several different pathways merge and then use to regulate many physiological processes. Worm daf-16 mutant has an average life-span that is […] the N2 worm (FIGS. 3A, 3B, and 3C; FIGS. 4-6).

[1] = test system: accelerated ageing mouse model; assay: Accelerated ageing mouse model; format: in vivo
From the text: FIGS. 5A, 5B, 5C, and 5D show the animal study in rats (FIG. 5A: untreated disease group; FIG. 5B treated disease group).
Another aspect provides a method of treating a subject diagnosed to have a premature ageing disease or condition, comprising treating the subject with a therapeutically effective amount of compound I. In some embodiments, the premature ageing disease is Hutchinson-Gilford progeria syndrome. In some embodiments, the premature ageing disease is Werner syndrome. In some embodiments, the premature ageing disease or condition is premature ageing of skin, mucous membranes, scalp and/or hair of the subject. In some embodiments, the method may further include a step of identifying or determining the subject as having premature ageing disease or condition. Procedures of the determination step for premature ageing disease or condition are generally known in the field. As shown in the example section and FIGS. 4-6, the study (accelerated ageing mouse model) analyzed the physical appearance and activities of two groups (with and without the feeding of Compound I, 20 mg/kg daily) over the period of about 1 year.

[2] = test system: primary cortical neuron culture; assay: Oxygen glucose deprivation of primary cortical neuron culture; format: cell-based; conditions: FIG. 5D
[3] = test system: stroke middle cerebral artery occlusion (MCAO) model; assay: Stroke middle cerebral artery occlusion (MCAO) model; format: in vivo; conditions: MCAO mice, vs vehicle
From the text: FIGS. 7A, 7B, 7C, and 7D show the protective effect of ergothioneine on stroke MCAO model (images of tissue sample (FIG. 7A), infarct volume (FIG. 7B), neurological deficit (FIG. 7C), and cerebral blood flow (CBF) (FIG. 7D) of Sham, vehicle, and ergothioneine treated mice).
The MCAO model is a stroke model that uses mice and rats. The model involves inserting a surgical filament into the external carotid artery and threading it into the internal carotid artery. The filament is inserted to block blood flow for a set period of time, usually 30-120 minutes. The filament is then removed to allow reperfusion, resulting in an ischemic stroke. A sham mouse is a control animal used in […]. Sham procedures are performed on a control group participant to ensure they experience the same effects as those who receive a true operation.
As shown, ergothioneine reduces the infarct size by at least 50%. […] As shown, ergothioneine reduces neurological deficit by at least 40%. […] As shown, ergothioneine […] cerebral blood flow by at least 60%.

[4] = test system: pancreatic/renal kallikrein (Klk1) related Kallikrein system; assay: RNA-seq analysis of peri-infarct area of the MCAO model; format: in vivo, mice; conditions: FIG. 8
From the text: FIGS. 8A and 8B that the results of RNA-seq analysis of peri-infarct area of the MCAO model.
KLK1 is a key protein in the Kallikrein-Kinin system (KKS). The KKS promotes local blood flow and vasodilation, and may also reduce inflammation and oxidative stress. KLK1 is a serine protease that plays a critical role in regulating blood pressure, blood flow, and microcirculation. It's a secretory product of the salivary glands and the pancreas, and is also found in the kidney. KLK1 has a major function of reducing blood pressure by releasing the peptide hormone Lys-bradykinin (kallidin) from low molecular weight kininogen. This affects muscle relaxation and inflammatory processes. KLK1 also has anti-inflammatory, anti-apoptotic, anti-fibrotic, and anti-oxidative actions.

[5] = through transporter OCTN1; humans; cited from earlier work
[6] = in vivo; cited from earlier work
[7] = test system: adhesion molecules VACM-1, ICAM-1, and E-selectin; conditions: cited from earlier work
[8] = 20 mg/kg daily feeding, about 1 year, treated vs untreated group
[9] = mice, compared to untreated mice, FIG. 5C

Question: Which results are given for `C[N+](C)(C)[C@@H](Cc1c[nH]c(=S)[nH]1)C(=O)O` [ergothioneine, Ergothioneine]?
Answer: life-extension effect (N2 C. elegans; 50 μM, N2 C. elegans): robust life-extension effect; lifespan extension (N2 C. elegans; 150 μM, wild type worm): 30-40%; life extension of Eat-2 worm mutant (worm Eat-2 mutant): can further extend the life; protective effect under oxidative stress (N2 worms): clearly offers protective effects and alleviates the detrimental effects of oxidative stress; average survival time under heat shock (N2 worm): 8 to 9 h; life-extension effect in daf-16 mutant (daf-16 mutant worm): the life-extension effect was abolished; effect on the ageing process ([1]; 20 mg/kg daily feeding, about 1 year): could effectively slow down the ageing process; average weight [1, 8]: higher average weight; skin condition [1, 8]: more smooth skin condition; physical activity of the untreated group relative to the treated group ([1]; 20 mg/kg daily feeding, about 1 year, words describe the group without treatment): less active physically; extension of maximum lifespan [1, 9]: at least 30%; extension of median lifespan [1, 9]: at least 40%; cell death caused by oxygen glucose deprivation [2]: reverses cell death; reduction of infarct size ([3]; FIG. 7B): at least 50%; reduction of neurological deficit ([3]; FIG. 7C): at least 40%; reduction of cerebral blood flow (CBF) ([3]; FIG. 7D): at least 60%; regulation of Klk1 related Kallikrein system (RNA level) [4]: up-regulate; concentration accumulated in many parts of the body [5]: up to 2 mM; blood-brain barrier passage [6]: can pass through the blood-brain barrier; expression of adhesion molecules VACM-1, ICAM-1, and E-selectin [7]: decreases the expression
